Measured values taken from US10159656B2, “Methods for use of epinephrine fine particles for treatment of conditions responsive to epinephrine” (NOVA SOUTHEASTERN UNIVERSITY, priority 2013, dated 2018).

How the values were obtained:
[1] = one cycle at 30,000 Psi
Procedure: The processed EpiBit were tested for stability and removal of isopropyl alcohol using FT-IR spectrometer, spectrum 100 (PerkinElmer, Waltham, Mass.) scanned from 4000-650 cm^−1.

[2] = one cycle at 30,000 Psi; remark: listed apart in the source
Procedure: Also, the processed EpiBit were tested for purity, stability, and crystallinity changes using Differential Scanning calorimetry (DSC) 4000 (PerkinElmer, Waltham, Mass.) that was calibrated using an indium standard and heated from 30 to 300° C. at rate of 10° C./min and with a nitrogen purge of 20 mL/min.

[3] = after processing, one cycle at 30,000 Psi
[4] = Procedure: The average particles size (by volume) of EpiBit before processing was measured using laser diffraction technique using Mastersizer (Malvern Instruments Inc, Westborough, Mass.).
[5] = EpiBit before processing, by volume, n=6, text
[6] = EpiBit before processing, by volume, listed as EpiBit crystals before processing

Structure (SMILES)	degradation after processing (FT-IR spectra before and after) [1]	degradation or crystallinity change after processing (DSC) [2]	particles size distribution by intensity ([3]; n=3)	particles size distribution by volume ([3]; n=3)	Z-potential ([3]; listed as EpiBit crystals after processing)	10th percentile (Dv0.1) particle size [4, 5]	median (Dv0.5) particle size [4, 5]	D (4, 3) mean volume particle size [4, 6]	D(0.9) particle size [4, 6]	reduction of particles size of EpiBit crystals ([4]; after versus before processing)
CNC[C@H](O)c1ccc(O)c(O)c1.O=C(O)C(O)C(O)C(=O)O [EpiBit After Processing, epinephrine bitartrate microcrystals]	no evidence of EpiBit degradation after processing	no evidence of EpiBit degradation or crystallinity change after processing	2.4±0.4 μm	2.5±0.4 μm	−4.5±1.4 mV					
CNC[C@H](O)c1ccc(O)c(O)c1.O=C(O)C(O)C(O)C(=O)O [EpiBit Before Processing, (−)-Epinephrine (+) bitartrate]						39.8±3.0 nm	113.6±9.1 nm	131.8±10.5 μm	254.8±20.1 μm	up to 55 folds
